Laboratory results reported in patent US20130209439A1, “INHIBITORS OF PDE4 BINDING TO HSP20” (THE UNIVERSITY COURT OF THE UNIVERSITY OF GLASGOW, priority 2010, published 2013).

Tests used:
His-Hsp20 = target: T1, His-Hsp20 (Homo sapiens, UniProt O14558); assay: SPOT peptide array overlaid with His-Hsp20; assay type: binding; conditions: overlay with 10 μg/ml purified His-Hsp20
T1 construct: made in house; host or cells: E. coli BL21
T1 sequence (O14558 1-160): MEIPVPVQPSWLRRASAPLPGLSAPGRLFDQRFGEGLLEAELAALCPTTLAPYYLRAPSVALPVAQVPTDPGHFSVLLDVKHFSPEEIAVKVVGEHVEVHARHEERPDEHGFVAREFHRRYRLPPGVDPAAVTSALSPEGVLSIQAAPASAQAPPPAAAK
Method: A variety of peptides were generated and SPOT-synthesised onto slides which were then overlaid with 10 μg/ml of purified His-Hsp20. Interaction with peptides and Hsp20 was evaluated by probing slides with anti-His or Hsp20 antibodies and analysed using enhanced chemi-luminescence techniques, Negative controls used anti-His antibody only with no overlay of His-Hsp20 protein (data not shown). Positive interaction domains were then subjected to further rounds of truncations and key endogenous residues were substituted for non-native residues to ascertain what effects this would have in the binding of Hsp20.
This was done as described in detail elsewhere^41.
PDE4 isoform localisation invariably depends on protein-protein interactions, with PDE4s shown to associate with a diverse group of interacting partners such as RACK1^32, 36, βarrestin^36, β1-Ar^37, DISC1^38, the p75 neurotrophin receptor^39 and the cardiac IKs potassium channel^40. One method that has been pivotal in mapping the sites of association between PDE4s and their binding partners is peptide array^36. SPOT immobilised peptide libraries of PDE4 sequences have been utilised to accurately predict binding domains for partner proteins. Here we have employed this novel technique to define the HSP20 binding site within the sequence of PDE4D5, an isoform that is endogenously expressed in cardiomyocytes. Peptide arrays of overlapping 25-mer peptides, sequentially shifted by 5 amino acids and spanning the entire sequence of PDE4D5, were incubated with purified recombinant HSP20-6his. Dark spots represent positive areas of HSP20 interaction whereas clear spots are negative for the association (FIG. 4A). While no signal was observed when the arrays were overlaid with BSA, positive signals were obtained for 25mer peptides 93 to 96 following HSP20-6His overlay. Peptides 93 to 96 span the amino acid sequence Y^461-K^500 within the conserved catalytic domain of PDE4D5 (FIG. 4A: middle panels). […]

[1] = test system: pS16-Hsp20 in SH-SY5Y cells; assay: Cell based Hsp20-PDE4D disruptor assay, nucleofected SH-SY5Y cells, pS16-Hsp20 Western blot; parameters: species or system human; conditions: SH-SY5Y cells nucleofected with 500 μM peptide, 2 hours
Method: FIG. 9. Disrupter induced HSP20 phosphorylation SH-SY5Y cells nucleofected with 500 μM of each peptide and incubated for 2 hours prior to harvesting. Each assay was blotted for Hsp20, pS16-Hsp20 and tubulin. Changes in levels of phospho-Hsp20 relative to DMSO only controls were quantified through densitometry analysis and each assay was normalised to α-tubulin loading control. The results are the average of three separate experiments and error bars represent SEM. *=p<0.05, **=p<0.01 compared to DMSO only controls (Student-T-test)
SDS-PAGE analysis was done on NuPage® pre-cast gels X-cell apparatus (Invitrogen, Paisley) using MES-SDS running buffer, Samples were reduced in Laemmli 2× loading buffer (4% SOS) with 5% β-mercaptoethanol. For Western Blotting (WB) analysis, samples were transferred using NuPage® X-cell blotting module onto a nitrocellulose membrane. Membranes were blocked using 5% Milk in 1×TBST (w/v). Antibodies were incubated in 1% milk in 1×TBST (w/v) for either 1 hour at room temperature or overnight at 4° C. Signals were detected using enhanced chemiluminescence system (Pierce) and developed on an X-omat film developer. Subsequent densitometry analysis was carried out using Quantity One (Bio-Rad).
SH-SY5Y cells (ATCC-CRL-2266) were grown in Dulbecco's Modified Eagle's Medium (DMEM) and F12-Ham's at a 1:1 ratio, media was supplemented with 10% (v/v) fetal bovine serum (FBS), 1% (v/v) L-Glutamine, 1% (v/v) Minimum Essential Medium—With Non-essential Amino Acids (MEM-NAA) and 1% (v/v) Pen/strep. Cells were cultured in a humidified, 5% (v/v) CO2, 37° C. incubator.
SH-SY5Y cells were nucleofected using Cell Line Nucleofector® Kit-V in accordance with manufacturers protocol (Amaxa Biosystems). Setting A-23 on the Nucleofector I device was used which increases cell viability. For each assay, 500 μM of disrupter peptide was incubated with 100 μl of nucleofection solution containing approximately 2×10^6 cells. After nucleofection cells were re-suspended in 500 μl of culture media before being transferred to a 6 well plate with a final volume of 2 ml per well. Cells were incubated for 2 hours prior to harvesting with […] containing protease and phosphatase inhibitors (Roche).
As the cell permeability of the peptides is unknown we used an electroporation technique to introduce the peptides into the SH-SY5Y cells. The Amaxa cell-line specific Nucleofector Kit V (Lonza) was used to transfect the peptides into the cells. […] Each assay used a final concentration of 500 μM of peptide in nucleofector solution containing approximately 2×10^6 SH-SY5Y cells. As peptides were dissolved in 100% DMSO, control transfections with DMSO only were used to compare any changes in phospho-Hsp20 levels. After each transfection the solution was reconstituted in culture media and incubated for 2 hours to allow for cell adhesion prior to the harvesting of viable cells.

[2] = test system: cAMP in the vicinity of HSP20; assay: cAMP FRET with cytosolic and HSP20-targeted reporters in cardiac myocytes; assay type: cell-based, rat
Source text: FIG. 5. Measurement of relative cAMP concentration in the vicinity of HSP20 using targeted cAMP FRET probes. A, Representative traces showing FRET ratios that indicate relative cAMP concentrations measured by cytosolic and HSP20 targeted cAMP reporter constructs. B, Upper panel, graphical depiction of maximum FRET ratios achieved using both cytosolic and HSP20-targeted probes following treatment with isoprenaline (Iso), rolipram (Roli) and IBMX. Lower panel, images of the localisation of cytosolic and HSP20-targeted cAMP reporter constructs.
The Hsp20-targeted cAMP FRET probe was generated by cloning the Hsp20 open reading frame, excluding the stop codon, immediately 5′ to the EPACG-based FRET sensor^55. Hsp20 open reading frame was amplified from the Ultimate™ ORF clone IOH57317 (Invitrogen) using the following primers to incorporate HindIII restriction sites at both 5′ and 3′ ends: Forward 5′-gcacaagctt[…]-3′ (SEQ ID NO: 70) Reverse 5′-gcacaagctt[…]-3′ (SEQ ID NO: 71). […]
Primary cultures of ventricular cardiac myocytes were prepared from 1-3 day old Sprague-Dawley rats, as described above. […] FRET changes were measured following background subtraction by dividing the intensity of emissions at 480 nm and 545 nm, following excitation at 440 nm. Data are expressed as dR/R0, where R=fret ratio at time t (sec), R0=fret ratio at time zero, and dR=R−R0. […]

[3] = test system: Phospho-Ser16 HSP20 in neonatal cardiac myocytes; assay: Ser16 phosphorylation of endogenous HSP20 in neonatal cardiac myocytes (Western blot); assay type: cell-based, rat
Method: FIG. 2. The phosphorylation of HSP20 at Ser16 is modulated by PDE4 activity in cardiac myocytes. A, Neonatal cardiac myocytes were treated with isoprenaline for indicated times with or without pre-treatment with the PDE4-specific inhibitor, rolipram. Cellular lysates were blotted for HSP20 and Phospho-Ser16 HSP20. B, Quantifications of data from FIG. 2A (n=3). * Denotes significance at a level p<0.05 over iso treatment.
(§1) HEK293B2 cells are a stable cell line overexpressing the GFP-tagged β2AR were cultured as previously described^48. HEK293B2 cells were transiently transfected with wild type HSP20 or a phosphorylation defective HSP20 (S16A) or a phosphorylation mimic HSP20 (S16D). Neonatal cardiac myocytes were prepared and cultured as previously described^30. Cell lysis, immunopurification and western blotting was done as described before by us in some detail^48. Briefly, HEK 293 cells were transiently transfected with wild-type HSP20 by using Polyfect Transfection Reagent (Qiagen). Transfected HEK 293 cells were treated with 10 μM bs906 or 10 μM control peptide for 0, 15, 30, 60 and 120 min. Control and treated transfected HEK 293 cells were then washed thrice with ice cold PBS (phosphate buffered saline) before cellular lysates were prepared. Cellular lysates were prepared in lysis buffer containing 25 mM Hepes, pH 7.5, 2.5 mM EDTA, 50 mM NaCl, 50 mM NaF, […], 10% (v/v) glycerol, 1% (v/v) Triton X-100 and Complete™ EDTA-free protease inhibitor cocktail tablets (Roche). Protein concentration of lysates were determined using the Bradford assay and all samples were equalised for protein concentration. Proteins were separated by SOS/PAGE (4-12% Bis-Tris gels) and transferred onto nitrocellulose membranes for Western blotting. Antibodies were used to detect phospho-proteins and native proteins in lysates from control and treated cells
To determine whether inhibition of PDE4 activity had similar effects on endogenous phospho-HSP20 levels in heart cells, similar experiments were undertaken using neonatal cardiomyocytes (FIG. 2).

[4] = test system: Phospho-Ser16 HSP20 in HEKB2 cells; assay: Ser16 phosphorylation of HSP20 in HEKB2 cells overexpressing HSP20 (Western blot); assay type: cell-based; conditions: HEKB2 cells
Method: FIG. 1. The phosphorylation of HSP20 at Ser16 is modulated by PDE4 activity in HEKB2 cells. A, HEKB2 cells overexpressing HSP20 or HSP20 ser16-Ala mutant were treated with isoprenaline for indicated times. Cellular lysates were blotted for HSP20 and Phospho-Ser16 HSP20. B, HEKB2 cells overexpressing HSP20 were treated with isoprenaline for indicated times, Cellular lysates were blotted for HSP20 and Phospho-Ser16 HSP20. C, HEKB2 cells overexpressing HSP20 were treated with isoprenaline for indicated times following pre-treatment with the PDE4-specific inhibitor, rolipram. Cellular lysates were blotted for HSP20 and Phospho-Ser16 HSP20. D, Quantifications of data from FIGS. 1B and 1C (n=4). * Denotes significance at a level p<0.05 E, Lysate from untransfected HEKB2 cells was blotted for HSP20 and Phospho-Ser16 HSP20.
as §1
In contrast to this, when we transfected these cells with a phospho-null mutant form, Ser16Ala-Hsp20, then no such change was observed (FIG. 1A). In order to evaluate whether PDE4 activity played a role in regulating this phosphorylation process in Hsp20-transfected HEKB2 cells, cells that had either been pre-treated or not with the PDE4 selective inhibitor rolipram were subsequently challenged with isoprenaline (1 μM) (FIGS. 1B and C). […] Endogenous levels of phospho-HSP20 or HSP20 were not detectable in HEKB2 cells (FIG. 1E).

Compound | binding of Hsp20 to peptide on array (His-Hsp20) | pS16-Hsp20 levels relative to DMSO only controls [1] | cAMP FRET response, HSP20-targeted reporter compared with cytosolic probe [2] | also measured
Ac-GFK-NH2 (Ac-Gly-Phe-Lys-NH2) [Peptide 17] | shortest size | indistinguishable from DMSO only controls |  | 
CC(C)Cn1c(=O)n(C)c(=O)c2[nH]cnc21 [IBMX] |  |  | identical maximal response | 
COc1ccc(C2CNC(=O)C2)cc1OC1CCCC1 (stereo not drawn) [rolipram] |  |  | clearly greater in the HSP20 targeted reporter | phospho-HSP20 levels ([3]; cardiomyocytes, PDE4 inhibition alone): marked increase in phospho-HSP20 levels; isoprenaline-induced increase in endogenous phospho-HSP20 levels ([3]; neonatal cardiomyocytes, rolipram pre-treatment): markedly augmented; isoprenaline-stimulated HSP20 phosphorylation ([4]; rolipram pre-treatment then isoprenaline 1 μM): increased isoprenaline-stimulated HSP20 phosphorylation; phospho-HSP20 levels compared to resting cells ([4]; rolipram treatment alone): clear increase in phospho-HSP20 levels

Now from value to compound, other results behind:

binding of Hsp20 to peptide on array (His-Hsp20) | Compound | pS16-Hsp20 levels relative to DMSO only controls [1] | cAMP FRET response, HSP20-targeted reporter compared with cytosolic probe [2] | also measured
shown to bind HSP20 | Ac-FQNLTR-NH2 [Peptide 5] | inability |  | 
shortest size | Ac-KLL-NH2 (Ac-Lys-Leu-Leu-NH2) [Peptide 10] | indistinguishable from DMSO only controls |  | 
